Read-outs that look alike come from different tables or passages of the source.
Legend:
Assay in all cases: biochemical
Design in all cases: Eurofins KinaseProfiler full panel at Km ATP, residual kinase activity (%) relative to DMSO
[1] = molecular target: T1, Yes(h) (Homo sapiens, UniProt P07947)
T1 construct: gene YES1
Procedure, shortened: (§1)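 Two 10 µM single-concentration screens were run: a competition-binding screen, in which DNA-tagged kinase bound to immobilized ligands was quantified by qPCR, and a radiometric activity panel at Km ATP. Each is expressed as residual kinase activity (%).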

[2] = molecular target: T2, RIPK1(h) (Homo sapiens, UniProt Q13546)
T2 sequence (Q13546 1-671): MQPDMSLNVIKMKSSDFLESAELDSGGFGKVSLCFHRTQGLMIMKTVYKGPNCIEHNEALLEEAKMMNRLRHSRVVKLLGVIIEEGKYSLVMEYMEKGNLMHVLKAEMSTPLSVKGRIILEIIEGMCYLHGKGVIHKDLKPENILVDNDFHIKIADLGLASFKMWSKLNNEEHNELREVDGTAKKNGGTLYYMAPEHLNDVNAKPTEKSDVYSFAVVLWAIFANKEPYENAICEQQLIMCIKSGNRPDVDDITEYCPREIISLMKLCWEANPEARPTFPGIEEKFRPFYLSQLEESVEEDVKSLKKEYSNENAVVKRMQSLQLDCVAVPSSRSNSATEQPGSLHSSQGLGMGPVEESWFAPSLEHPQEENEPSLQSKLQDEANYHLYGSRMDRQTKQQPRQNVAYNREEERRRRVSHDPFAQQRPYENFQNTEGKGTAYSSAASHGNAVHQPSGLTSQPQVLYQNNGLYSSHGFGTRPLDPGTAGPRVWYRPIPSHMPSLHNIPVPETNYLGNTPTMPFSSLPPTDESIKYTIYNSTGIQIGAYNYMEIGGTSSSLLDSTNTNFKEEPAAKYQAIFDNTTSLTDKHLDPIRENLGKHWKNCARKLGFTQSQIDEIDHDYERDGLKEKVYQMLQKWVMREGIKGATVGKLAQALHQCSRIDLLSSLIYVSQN
Procedure, shortened: as §1

[3] = molecular target: mTOR(h) (Homo sapiens, UniProt P42345)
Procedure, shortened: as §1

[4] = molecular target: T3, CK1γ2(h) (Homo sapiens, UniProt P78368)
T3 construct: gene CSNK1G2
Procedure, shortened: as §1

[5] = molecular target: Met(h) (Homo sapiens, UniProt P08581)
Procedure, shortened: as §1

[6] = molecular target: T4, TGFBR1(h) (Homo sapiens, UniProt P36897)
T4 sequence (P36897 1-503): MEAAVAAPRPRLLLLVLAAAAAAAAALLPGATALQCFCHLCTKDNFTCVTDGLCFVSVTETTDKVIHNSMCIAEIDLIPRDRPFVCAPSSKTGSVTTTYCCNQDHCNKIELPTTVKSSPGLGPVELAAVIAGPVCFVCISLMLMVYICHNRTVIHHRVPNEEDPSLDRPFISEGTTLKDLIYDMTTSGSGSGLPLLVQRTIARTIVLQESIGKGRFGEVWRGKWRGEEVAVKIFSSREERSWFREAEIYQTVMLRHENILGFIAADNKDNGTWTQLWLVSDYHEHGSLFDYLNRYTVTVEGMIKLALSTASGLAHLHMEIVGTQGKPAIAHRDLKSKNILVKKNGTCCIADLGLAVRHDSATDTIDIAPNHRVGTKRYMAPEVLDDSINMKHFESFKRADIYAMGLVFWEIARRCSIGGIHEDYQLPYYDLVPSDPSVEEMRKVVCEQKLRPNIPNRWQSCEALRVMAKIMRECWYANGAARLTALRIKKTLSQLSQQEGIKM
Procedure, shortened: as §1

[7] = molecular target: Fgr(h) (Homo sapiens, UniProt P09769)
Procedure, shortened: as §1

[8] = molecular target: T5, MLK3(h) (Homo sapiens, UniProt Q16584)
T5 construct: gene MAP3K11
Procedure, shortened: as §1

[9] = molecular target: Fes(h) (Homo sapiens, UniProt P07332)
Procedure, shortened: as §1

[10] = read-out: Residual activity (%) Spautin-1 5aa
[11] = read-out: Residual activity (%) 5as
[12] = read-out: Residual activity (%) 5at
[13] = read-out: Residual activity (%) 5ay

T5 sequence (Q16584 whole entry): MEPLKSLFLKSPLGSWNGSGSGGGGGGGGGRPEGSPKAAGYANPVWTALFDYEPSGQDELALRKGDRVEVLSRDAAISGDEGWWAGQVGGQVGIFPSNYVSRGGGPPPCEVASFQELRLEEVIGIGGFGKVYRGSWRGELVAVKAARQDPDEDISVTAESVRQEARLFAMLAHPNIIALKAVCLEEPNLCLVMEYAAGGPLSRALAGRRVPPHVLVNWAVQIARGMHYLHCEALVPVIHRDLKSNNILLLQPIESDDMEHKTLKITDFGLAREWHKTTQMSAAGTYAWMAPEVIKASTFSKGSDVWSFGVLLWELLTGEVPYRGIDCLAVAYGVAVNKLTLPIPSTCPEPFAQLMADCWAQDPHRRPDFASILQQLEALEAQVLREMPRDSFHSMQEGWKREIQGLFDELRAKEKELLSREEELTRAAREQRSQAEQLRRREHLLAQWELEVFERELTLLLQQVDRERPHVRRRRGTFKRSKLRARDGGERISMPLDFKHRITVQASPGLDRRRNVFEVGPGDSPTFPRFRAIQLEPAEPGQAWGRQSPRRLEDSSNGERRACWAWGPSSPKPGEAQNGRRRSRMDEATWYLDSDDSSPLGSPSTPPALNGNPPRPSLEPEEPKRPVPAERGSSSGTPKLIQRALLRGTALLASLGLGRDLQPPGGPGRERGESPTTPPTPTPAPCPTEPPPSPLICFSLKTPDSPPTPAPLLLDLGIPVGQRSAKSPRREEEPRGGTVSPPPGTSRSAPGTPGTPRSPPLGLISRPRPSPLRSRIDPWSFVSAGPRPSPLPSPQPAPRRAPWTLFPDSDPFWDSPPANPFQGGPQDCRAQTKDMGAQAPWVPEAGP
Sequence of Fes(h) (P07332 whole entry): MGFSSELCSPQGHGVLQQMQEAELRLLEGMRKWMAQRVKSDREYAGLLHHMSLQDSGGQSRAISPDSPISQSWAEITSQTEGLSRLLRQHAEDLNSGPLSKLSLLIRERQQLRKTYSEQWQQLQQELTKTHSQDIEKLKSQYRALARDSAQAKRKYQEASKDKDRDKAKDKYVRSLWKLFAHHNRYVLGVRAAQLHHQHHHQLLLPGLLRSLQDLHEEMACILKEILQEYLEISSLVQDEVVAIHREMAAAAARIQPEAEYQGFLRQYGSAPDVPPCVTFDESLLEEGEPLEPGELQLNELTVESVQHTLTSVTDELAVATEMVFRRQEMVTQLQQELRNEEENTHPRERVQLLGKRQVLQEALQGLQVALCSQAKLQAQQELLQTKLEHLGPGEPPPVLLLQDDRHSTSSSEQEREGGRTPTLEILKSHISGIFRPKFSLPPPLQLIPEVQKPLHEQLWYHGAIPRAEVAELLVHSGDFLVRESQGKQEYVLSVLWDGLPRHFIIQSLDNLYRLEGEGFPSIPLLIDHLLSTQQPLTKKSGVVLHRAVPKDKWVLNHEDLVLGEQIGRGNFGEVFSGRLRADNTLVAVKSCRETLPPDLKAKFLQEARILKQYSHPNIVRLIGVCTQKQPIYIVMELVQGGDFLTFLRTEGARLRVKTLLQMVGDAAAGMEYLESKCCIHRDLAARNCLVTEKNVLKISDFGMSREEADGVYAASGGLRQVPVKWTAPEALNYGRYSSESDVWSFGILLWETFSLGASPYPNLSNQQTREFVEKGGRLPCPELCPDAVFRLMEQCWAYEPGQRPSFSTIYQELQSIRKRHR
T1 sequence (P07947 whole entry): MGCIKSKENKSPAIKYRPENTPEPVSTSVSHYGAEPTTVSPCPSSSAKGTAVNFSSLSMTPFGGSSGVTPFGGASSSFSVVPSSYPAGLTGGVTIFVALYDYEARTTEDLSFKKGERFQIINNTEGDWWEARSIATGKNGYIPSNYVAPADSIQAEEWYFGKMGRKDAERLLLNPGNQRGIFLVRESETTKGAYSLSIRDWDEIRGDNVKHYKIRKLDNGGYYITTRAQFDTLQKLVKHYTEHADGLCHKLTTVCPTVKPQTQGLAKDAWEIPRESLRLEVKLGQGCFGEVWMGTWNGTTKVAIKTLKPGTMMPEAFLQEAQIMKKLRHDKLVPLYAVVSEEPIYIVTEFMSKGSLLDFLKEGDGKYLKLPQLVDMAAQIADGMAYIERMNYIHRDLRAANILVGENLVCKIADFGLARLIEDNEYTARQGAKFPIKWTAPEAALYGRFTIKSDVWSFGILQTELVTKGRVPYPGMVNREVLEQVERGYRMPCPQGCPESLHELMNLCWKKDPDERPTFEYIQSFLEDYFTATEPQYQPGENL
Sequence of Met(h) (P08581 whole entry): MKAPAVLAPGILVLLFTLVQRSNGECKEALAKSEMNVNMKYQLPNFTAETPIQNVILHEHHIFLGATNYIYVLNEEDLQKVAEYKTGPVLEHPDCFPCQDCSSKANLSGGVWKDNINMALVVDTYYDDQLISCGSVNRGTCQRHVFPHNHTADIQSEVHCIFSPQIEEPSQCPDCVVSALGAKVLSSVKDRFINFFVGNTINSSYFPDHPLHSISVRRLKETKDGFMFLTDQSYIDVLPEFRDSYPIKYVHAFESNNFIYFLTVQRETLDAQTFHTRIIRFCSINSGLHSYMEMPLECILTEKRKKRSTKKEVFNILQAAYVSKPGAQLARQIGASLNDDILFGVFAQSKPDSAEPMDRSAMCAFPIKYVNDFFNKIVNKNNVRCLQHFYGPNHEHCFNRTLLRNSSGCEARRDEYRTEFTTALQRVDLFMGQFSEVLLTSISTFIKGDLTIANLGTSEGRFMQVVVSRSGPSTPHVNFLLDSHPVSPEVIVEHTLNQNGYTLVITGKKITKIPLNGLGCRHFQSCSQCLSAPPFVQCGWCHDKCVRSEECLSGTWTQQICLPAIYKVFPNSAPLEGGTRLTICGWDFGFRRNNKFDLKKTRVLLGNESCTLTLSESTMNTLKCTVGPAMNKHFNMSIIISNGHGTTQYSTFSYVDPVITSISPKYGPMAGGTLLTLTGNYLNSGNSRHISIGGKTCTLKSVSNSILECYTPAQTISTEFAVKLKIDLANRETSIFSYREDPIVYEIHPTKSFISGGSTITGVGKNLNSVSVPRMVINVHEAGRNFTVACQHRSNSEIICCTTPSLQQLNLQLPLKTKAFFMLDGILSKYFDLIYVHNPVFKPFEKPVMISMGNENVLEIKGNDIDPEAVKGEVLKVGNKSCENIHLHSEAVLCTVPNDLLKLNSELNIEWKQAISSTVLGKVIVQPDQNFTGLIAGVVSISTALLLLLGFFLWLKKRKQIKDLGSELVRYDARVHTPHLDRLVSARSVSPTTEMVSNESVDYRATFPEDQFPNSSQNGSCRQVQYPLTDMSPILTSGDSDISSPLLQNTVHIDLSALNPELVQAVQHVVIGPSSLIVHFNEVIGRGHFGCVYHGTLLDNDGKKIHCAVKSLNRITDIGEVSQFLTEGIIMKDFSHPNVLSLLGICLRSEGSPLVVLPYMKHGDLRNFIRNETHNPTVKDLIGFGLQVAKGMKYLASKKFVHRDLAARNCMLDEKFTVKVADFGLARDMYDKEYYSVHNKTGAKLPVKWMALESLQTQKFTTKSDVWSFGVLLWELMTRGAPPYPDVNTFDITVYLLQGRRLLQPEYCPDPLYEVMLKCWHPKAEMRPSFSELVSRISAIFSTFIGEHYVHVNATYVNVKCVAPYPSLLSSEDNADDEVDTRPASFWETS
T3 sequence (P78368 whole entry): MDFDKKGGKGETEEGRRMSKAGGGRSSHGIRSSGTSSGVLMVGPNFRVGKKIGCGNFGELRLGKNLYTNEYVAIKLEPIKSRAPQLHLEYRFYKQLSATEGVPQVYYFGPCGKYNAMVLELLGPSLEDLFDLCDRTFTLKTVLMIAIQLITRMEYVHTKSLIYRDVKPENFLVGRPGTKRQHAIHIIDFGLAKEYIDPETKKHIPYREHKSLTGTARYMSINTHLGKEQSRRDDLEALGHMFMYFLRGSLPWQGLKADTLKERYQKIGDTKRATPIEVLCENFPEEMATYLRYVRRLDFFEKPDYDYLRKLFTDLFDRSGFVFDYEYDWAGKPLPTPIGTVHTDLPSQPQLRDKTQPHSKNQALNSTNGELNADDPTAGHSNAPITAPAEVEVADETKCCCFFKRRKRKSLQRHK
Sequence of Fgr(h) (P09769 whole entry): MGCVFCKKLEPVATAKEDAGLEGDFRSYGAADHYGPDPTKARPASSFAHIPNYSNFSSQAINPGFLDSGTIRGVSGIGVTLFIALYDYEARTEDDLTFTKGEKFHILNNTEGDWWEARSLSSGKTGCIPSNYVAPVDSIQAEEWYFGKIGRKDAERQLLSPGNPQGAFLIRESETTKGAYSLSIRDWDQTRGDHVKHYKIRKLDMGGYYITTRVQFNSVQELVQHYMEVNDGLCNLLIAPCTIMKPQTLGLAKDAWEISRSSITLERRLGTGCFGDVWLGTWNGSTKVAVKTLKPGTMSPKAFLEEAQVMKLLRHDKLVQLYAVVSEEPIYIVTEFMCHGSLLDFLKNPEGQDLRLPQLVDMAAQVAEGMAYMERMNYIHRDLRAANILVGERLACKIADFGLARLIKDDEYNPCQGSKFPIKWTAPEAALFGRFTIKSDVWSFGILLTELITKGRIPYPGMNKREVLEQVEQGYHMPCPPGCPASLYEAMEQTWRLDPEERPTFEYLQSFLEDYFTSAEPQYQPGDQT

Structure (SMILES): Fc1ccc(CNc2ncnc3ccc(F)cc23)cc1 [5aa, 6-Fluoro-N-(4-fluorobenzyl)-4-Quinazolinamine]
- remaining activity at 10 µM [1, 10]: 92%
- remaining activity at 10 µM [2, 10]: 86%
- remaining activity at 10 µM [3, 10]: 79%
- remaining activity at 10 µM [4, 10]: 84%
- remaining activity at 10 µM [5, 10]: 82%
- remaining activity at 10 µM [6, 10]: 87%
- remaining activity at 10 µM [7, 10]: 112%
- remaining activity at 10 µM [8, 10]: 99%
- remaining activity at 10 µM [9, 10]: 91%

Structure (SMILES): Fc1ccc(CCNc2ncnc3ccc(F)cc23)cc1 [5as, 6-Fluoro-N-[2-(4-Fluorophenyl)Ethyl]-4-Quinazolinamine]
- remaining activity at 10 µM [1, 11]: 86%
- remaining activity at 10 µM [2, 11]: 73%
- remaining activity at 10 µM [3, 11]: 76%
- remaining activity at 10 µM [4, 11]: 72%
- remaining activity at 10 µM [5, 11]: 57%
- remaining activity at 10 µM [6, 11]: 97%
- remaining activity at 10 µM [7, 11]: 114%
- remaining activity at 10 µM [8, 11]: 99%
- remaining activity at 10 µM [9, 11]: 92%

Structure (SMILES): Fc1ccc2ncnc(NCCc3ccc(Cl)cc3)c2c1 [5at, N-[2-(4-Chlorophenyl)Ethyl]-6-Fluoro-4-Quinazolinamine]
- remaining activity at 10 µM [1, 12]: 84%
- remaining activity at 10 µM [2, 12]: 80%
- remaining activity at 10 µM [3, 12]: 80%
- remaining activity at 10 µM [4, 12]: 76%
- remaining activity at 10 µM [5, 12]: 112%
- remaining activity at 10 µM [6, 12]: 86%
- remaining activity at 10 µM [7, 12]: 95%
- remaining activity at 10 µM [8, 12]: 114%
- remaining activity at 10 µM [9, 12]: 81%

Structure (SMILES): COc1ccc2ncnc(Nc3cccc(F)c3)c2c1 [5ay, N-(3-Fluorophenyl)-6-Methoxy-4-Quinazolinamine]
- remaining activity at 10 µM [1, 13]: 72%
- remaining activity at 10 µM [2, 13]: 78%
- remaining activity at 10 µM [3, 13]: 77%
- remaining activity at 10 µM [4, 13]: 62%
- remaining activity at 10 µM [5, 13]: 72%
- remaining activity at 10 µM [6, 13]: 94%
- remaining activity at 10 µM [7, 13]: 90%
- remaining activity at 10 µM [8, 13]: 97%
- remaining activity at 10 µM [9, 13]: 93%
